Assay results reported in patent US8952024B2, “Herbicidal pyrimidone derivatives” (E I du Pont de Nemours and Company, priority 2009, dated 2015).

How the values were obtained:
Format in all cases: in vivo
[1] = test system: green foxtail (Setaria viridis); test: Test B pre-/postemergence plant response
Summary of the method: (§1)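 Steps: sow seed in loam–sand soil and spray preemergence, or grow plants in peat-based medium to 1–4 leaves (2–18 cm) and spray postemergence; formulation is non-phytotoxic solvent plus surfactant; hold in greenhouse 13–15 days; score visually vs controls, 0 = no effect, 100 = complete control.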

[2] = test system: pigweed (Amaranthus retroflexus); test: Test B pre-/postemergence plant response
Summary of the method: as §1

[3] = test system: ragweed (common ragweed, Ambrosia elatior); test: Test B pre-/postemergence plant response
Summary of the method: as §1

[4] = test system: soybean (Glycine max); test: Test B pre-/postemergence plant response
Summary of the method: as §1

[5] = test system: wild oat (Avena fatua); test: Test B pre-/postemergence plant response
Summary of the method: as §1

[6] = test system: bermudagrass (Cynodon dactylon); test: Test B pre-/postemergence plant response
Summary of the method: as §1

[7] = test system: kochia (Kochia scoparia); test: Test B pre-/postemergence plant response
Summary of the method: as §1

[8] = test system: johnsongrass (Sorghum halepense); test: Test B pre-/postemergence plant response
Summary of the method: as §1

[9] = test system: giant foxtail (Setaria faberii); test: Test B pre-/postemergence plant response
Summary of the method: as §1

[10] = test system: corn (Zea mays); test: Test B pre-/postemergence plant response
Summary of the method: as §1

[11] = test system: cocklebur (Xanthium strumarium); test: Test B pre-/postemergence plant response
Summary of the method: as §1

[12] = test system: lambsquarters (Chenopodium album); test: Test B pre-/postemergence plant response
Summary of the method: as §1

[13] = test system: barnyardgrass (Echinochloa crus-galli); test: Test B flooded paddy test; conditions: for Plant response rating, Barnyardgrass: Flood (flooded paddy test), 13 to 15 days
Summary of the method: (§2)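 Seedlings reaching 2 leaves are flooded 3 cm deep; test material is delivered to that water, which stays at the same depth. Plants remain in a greenhouse 13–15 days and are then scored by eye versus controls from 0 to 100.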

[14] = test system: umbrella sedge (Cyperus difformis); test: Test B flooded paddy test; conditions: for Plant response rating, Sedge, Umbrella: Flood (flooded paddy test), 13 to 15 days
Summary of the method: as §2

[15] = test system: rice (Oryza sativa); test: Test B flooded paddy test; conditions: for Plant response rating, Rice: Flood (flooded paddy test), 13 to 15 days
Summary of the method: as §2

[16] = test system: ducksalad (Heteranthera limosa); test: Test B flooded paddy test; conditions: for Plant response rating, Ducksalad: Flood (flooded paddy test), 13 to 15 days
Summary of the method: as §2

[17] = 31 g ai/ha, postemergence, scale 0 to 100, 0 is no effect, 100 is complete control
[18] = 250 g ai/ha, Preemergence, 0 to 100 scale
[19] = Postemergence, 62 g ai/ha, scale 0 (no effect) to 100 (complete control), 13 to 15 days
[20] = Postemergence, 125 g ai/ha, visual rating after 13 to 15 days, scale 0 (no effect) to 100 (complete control)
[21] = Postemergence, 250 g ai/ha, scale 0 to 100 (0 no effect, 100 complete control)
[22] = Preemergence, 31 g ai/ha, scale 0 to 100 (0 no effect, 100 complete control)
[23] = Preemergence, 62 g ai/ha, scale 0 to 100, 0 no effect, 100 complete control
[24] = Preemergence, 125 g ai/ha, scale 0 to 100, 0 no effect, 100 complete control
[25] = 250 g ai/ha, flooded paddy test, visual rating on 0 to 100 scale (0 no effect, 100 complete control) after 13 to 15 days
[26] = 31 g ai/ha, scale of 0 to 100 where 0 is no effect and 100 is complete control
[27] = 62 g ai/ha, scale of 0 to 100 where 0 is no effect and 100 is complete control
[28] = 125 g ai/ha, scale 0 to 100, 0 is no effect, 100 is complete control

Cc1cccc(-n2c(-c3ccccc3)ncc(C(=O)C3=C(O)CCCC3=O)c2=O)c1F [Compound 58]
Plant response rating, Foxtail, Green [1, 17]: 75 | Plant response rating, Foxtail, Green [1, 18]: 100 | Plant response rating, Foxtail, Green [1, 19]: 90 | Plant response rating, Foxtail, Green [1, 20]: 98 | Plant response rating, Foxtail, Green [1, 21]: 100 | Plant response rating, Foxtail, Green [1, 22]: 0 | Plant response rating, Foxtail, Green [1, 23]: 5 | Plant response rating, Foxtail, Green [1, 24]: 70 | Plant response rating, Pigweed [2, 17]: 80 | Plant response rating, Pigweed [2, 19]: 95 | Plant response rating, Pigweed [2, 20]: 98 | Plant response rating, Pigweed [2, 21]: 100 | Plant response rating, Pigweed [2, 22]: 85 | Plant response rating, Pigweed [2, 23]: 98 | Plant response rating, Pigweed [2, 24]: 100 | Plant response rating, Ragweed [3, 17]: 80 | Plant response rating, Ragweed [3, 19]: 85 | Plant response rating, Ragweed [3, 20]: 90 | Plant response rating, Ragweed [3, 21]: 98 | Plant response rating, Ragweed [3, 22]: 20 | Plant response rating, Ragweed [3, 23]: 75 | Plant response rating, Ragweed [3, 24]: 85 | Plant response rating, Soybean [4, 17]: 85 | Plant response rating, Soybean [4, 19]: 85 | Plant response rating, Soybean [4, 20]: 95 | Plant response rating, Soybean [4, 21]: 95 | Plant response rating, Soybean [4, 22]: 10 | Plant response rating, Soybean [4, 24]: 85 | Plant response rating, Oat, Wild [5, 17]: 45 | Plant response rating, Oat, Wild [5, 19]: 60 | Plant response rating, Oat, Wild [5, 20]: 60 | Plant response rating, Oat, Wild [5, 21]: 85 | Plant response rating, Oat, Wild [5, 22]: 0 | Plant response rating, Oat, Wild [5, 23]: 0 | Plant response rating, Oat, Wild [5, 24]: 0 | Plant response rating, Bermudagrass [6, 17]: 85 | Plant response rating, Bermudagrass [6, 18]: 100 | Plant response rating, Bermudagrass [6, 19]: 85 | Plant response rating, Bermudagrass [6, 20]: 98 | Plant response rating, Bermudagrass [6, 21]: 100 | Plant response rating, Bermudagrass [6, 22]: 98 | Plant response rating, Bermudagrass [6, 23]: 98 | Plant response rating, Bermudagrass [6, 24]: 100 | Plant response rating, Kochia [7, 17]: 0 | Plant response rating, Kochia [7, 19]: 10 | Plant response rating, Kochia [7, 20]: 25 | Plant response rating, Kochia [7, 21]: 25 | Plant response rating, Johnsongrass [8, 17]: 50 | Plant response rating, Johnsongrass [8, 18]: 85 | Plant response rating, Johnsongrass [8, 19]: 85 | Plant response rating, Johnsongrass [8, 20]: 98 | Plant response rating, Johnsongrass [8, 21]: 100 | Plant response rating, Johnsongrass [8, 22]: 10 | Plant response rating, Johnsongrass [8, 23]: 20 | Plant response rating, Johnsongrass [8, 24]: 80 | Plant response rating, Foxtail, Giant [9, 17]: 75 | Plant response rating, Foxtail, Giant [9, 18]: 75 | Plant response rating, Foxtail, Giant [9, 19]: 85 | Plant response rating, Foxtail, Giant [9, 20]: 90 | Plant response rating, Foxtail, Giant [9, 21]: 98 | Plant response rating, Foxtail, Giant [9, 22]: 10 | Plant response rating, Foxtail, Giant [9, 23]: 20 | Plant response rating, Foxtail, Giant [9, 24]: 75 | Plant response rating, Corn [10, 17]: 0 | Plant response rating, Corn [10, 18]: 0 | Plant response rating, Corn [10, 19]: 45 | Plant response rating, Corn [10, 20]: 65 | Plant response rating, Corn [10, 21]: 80 | Plant response rating, Corn [10, 22]: 0 | Plant response rating, Corn [10, 23]: 0 | Plant response rating, Corn [10, 24]: 0 | Plant response rating, Cocklebur [11, 17]: 85 | Plant response rating, Cocklebur [11, 18]: 65 | Plant response rating, Cocklebur [11, 19]: 85 | Plant response rating, Cocklebur [11, 20]: 85 | Plant response rating, Cocklebur [11, 21]: 90 | Plant response rating, Cocklebur [11, 22]: 0 | Plant response rating, Cocklebur [11, 23]: 0 | Plant response rating, Cocklebur [11, 24]: 10 | Plant response rating, Lambsquarters [12, 17]: 95 | Plant response rating, Lambsquarters [12, 18]: 98 | Plant response rating, Lambsquarters [12, 19]: 95 | Plant response rating, Lambsquarters [12, 20]: 100 | Plant response rating, Lambsquarters [12, 21]: 100 | Plant response rating, Lambsquarters [12, 22]: 85 | Plant response rating, Lambsquarters [12, 23]: 98 | Plant response rating, Lambsquarters [12, 24]: 98 | Plant response rating, Flood, Barnyardgrass [13, 25]: 0 | Plant response rating, Barnyardgrass [13, 26]: 0 | Plant response rating, Barnyardgrass [13, 27]: 0 | Plant response rating, Barnyardgrass [13, 28]: 0 | Plant response rating, Flood, Sedge, Umbrella [14, 25]: 0 | Plant response rating, Sedge, Umbrella [14, 26]: 0 | Plant response rating, Sedge, Umbrella [14, 27]: 0 | Plant response rating, Sedge, Umbrella [14, 28]: 0 | Plant response rating, Flood, Rice [15, 25]: 0 | Plant response rating, Rice [15, 26]: 0 | Plant response rating, Rice [15, 27]: 0 | Plant response rating, Rice [15, 28]: 0 | Plant response rating, Flood, Ducksalad [16, 25]: 0 | Plant response rating, Ducksalad [16, 26]: 0 | Plant response rating, Ducksalad [16, 27]: 0 | Plant response rating, Ducksalad [16, 28]: 0
